{
  "source": "patent US11661525B2",
  "about": "“Inkjet ink and inkjet recording apparatus” (KYOCERA Document Solutions Inc., priority 2020, dated 2023)",
  "origin": "cited, not measured here",
  "key": {"[1]": {"conditions": "literature values of the octanol/water partition coefficient of representative water-soluble organic solvents"}},
  "note": "Where two headings read alike, the source gives them in different places.",
  "data": [
    {"smiles": "CCCCCCC(O)CO", "note": "(centres unmarked) [1,2-Octanediol]", "values": [
      {"measurement": "LogP", "setting": "[1]", "result": 0.66}
    ]},
    {"smiles": "CC(CCO)CCO", "note": "[3-Methyl-1,5-pentanediol]", "values": [
      {"measurement": "LogP", "setting": "[1]", "result": 0.07},
      {"measurement": "LogP", "setting": "octanol/water partition coefficient of the water-soluble organic solvent used in the inks (Tables 6 and 8)", "result": 0.01}
    ]},
    {"smiles": "CCOCCOCCO", "note": "[Diethylene glycol monoethyl ether]", "values": [
      {"measurement": "LogP", "setting": "[1]", "result": "−0.15"}
    ]},
    {"smiles": "OCCOCCOCCO", "note": "[Triethylene glycol]", "values": [
      {"measurement": "LogP", "setting": "[1]", "result": "−1.98"}
    ]}
  ]
}
